Experimental data: patent publication US20230085307A1, “PYRIDAZINONE COMPOUND AND HERBICIDE” (NISSAN CHEMICAL CORPORATION, priority 2019, published 2023)

How the values were obtained:
[1] = system: wild oat; experiment: Test Example 5: herbicidal effect by foliage application, plastic box (Table 20, symbol I); type: in vivo, wild oat (Avena fatua); conditions: foliage application, 320 g/ha, three weeks after application
Outline: (§1)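 Foliar spray test: emulsion formulation diluted in water to a set application rate, sprayed onto 14-day-old plants raised in diluvial soil at 25° C to 30° C under glass. Both herbicidal effect and crop effect rated visually three weeks later.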

[2] = system: blackgrass; experiment: Test Example 5: herbicidal effect by foliage application, plastic box (Table 20, symbol J); type: in vivo, blackgrass (Alopecurus myosuroides); conditions: foliage application, 320 g/ha, three weeks after application
Outline: as §1

[3] = system: green foxtail; experiment: Test Example 5: herbicidal effect by foliage application, plastic box (Table 20, symbol G); type: in vivo, green foxtail (Setaria viridis); conditions: foliage application, 320 g/ha, three weeks after application
Outline: as §1

[4] = system: windgrass; experiment: Test Example 4: herbicidal effect by soil treatment (Table 19, symbol L); type: in vivo, windgrass (Apera spica-venti); conditions: amount of applied herbicide 320 g/ha
Outline: (§2)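 Herbicidal effect was rated 3 weeks after treatment, using the scoring criteria of an earlier test. The compound, formulated as an emulsion and diluted in water to a set herbicide amount, had been sprayed uniformly on soil over freshly sown seeds. Growth took place in a greenhouse at 25° C. to 30° C.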

[5] = system: Chinese sprangletop; experiment: Test Example 3: herbicidal effect by foliage application, Wagner pot (Table 18, symbol D); type: in vivo, chinese sprangletop (Leptochloa chinensis); conditions: 320 g/ha
Outline: (§3)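 Plants were sown in alluvial soil held under 0.1–0.5 cm standing water and grown 14 days in a greenhouse at 25–30 °C. An emulsifiable formulation, water-diluted to the set dose, was then sprayed onto the foliage, and effects were scored three weeks later using previously defined criteria.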

[6] = system: Italian ryegrass; experiment: Test Example 5: herbicidal effect by foliage application, plastic box (Table 20, symbol K); type: in vivo, Italian ryegrass (Lolium multiflorum); conditions: foliage application, 320 g/ha, three weeks after application
Outline: as §1

[7] = system: barnyard grass; experiment: Test Example 5: herbicidal effect by foliage application, plastic box (Table 20, symbol H); type: in vivo, barnyard grass (Echinochloa crus-galli); conditions: foliage application, 320 g/ha, three weeks after application
Outline: as §1

[8] = system: southern crabgrass; experiment: Test Example 4: herbicidal effect by soil treatment (Table 19, symbol F); type: in vivo, southern crabgrass (Digitaria ciliaris); conditions: amount of applied herbicide 320 g/ha
Outline: as §2

[9] = system: velvetleaf; experiment: Test Example 5: herbicidal effect by foliage application, plastic box (Table 20, symbol M); type: in vivo, velvetleaf (Abutilon theophrasti); conditions: foliage application, 320 g/ha, three weeks after application
Outline: as §1

[10] = system: late watergrass; experiment: Test Example 2: herbicidal activity, application during weed generation under submerged conditions (Table 17, symbol A); type: in vivo, late watergrass (Echinochloa oryzicola); conditions: AAH 320 g/ha; application during weed generation, submerged conditions
Outline: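 Wagner pot, alluvial soil, 4 cm flood; mixed sowing of all species; greenhouse 25° C.–30° C. Emulsifiable formulation, water-diluted to predetermined dose, applied to paddy water at 1–2 leaf stage. Effect rated at 3 wk using the earlier test's scoring criteria.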

[11] = system: lambsquarters; experiment: Test Example 4: herbicidal effect by soil treatment (Table 19, symbol O); type: in vivo, lambsquarters (Chenopodium album); conditions: amount of applied herbicide 320 g/ha
Outline: as §2

[12] = system: rice flat sedge; experiment: Test Example 3: herbicidal effect by foliage application, Wagner pot (Table 18, symbol E); type: in vivo, rice flat sedge (Cyperus iria); conditions: 320 g/ha
Outline: as §3

[13] = system: chickweed; experiment: Test Example 4: herbicidal effect by soil treatment (Table 19, symbol P); type: in vivo, common chickweed (Stellaria media); conditions: amount of applied herbicide 320 g/ha
Outline: as §2

[14] = system: Italian ryegrass; experiment: Test Example 4: herbicidal effect by soil treatment (Table 19, symbol K); type: in vivo, Italian ryegrass (Lolium multiflorum); conditions: amount of applied herbicide 320 g/ha
Outline: as §2

[15] = system: wild oat; experiment: Test Example 4: herbicidal effect by soil treatment (Table 19, symbol I); type: in vivo, wild oat (Avena fatua); conditions: amount of applied herbicide 320 g/ha
Outline: as §2

[16] = system: Japanese bulrush; experiment: Test Example 1: herbicidal activity, application before weed generation under submerged conditions (Table 16, symbol B); type: in vivo, Japanese bulrush (Schoenoplectus juncoides); conditions: 320 g/ha applied herbicide
Outline: (§4)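 Alluvial soil was flooded to 4 cm depth, weed seeds were sown mixed and 2.5-leaf rice seedlings were transplanted. On sowing day, the compound's emulsion, diluted in water to a set dose, was applied to the water surface. Plants grew at 25–30 °C and were scored 0–5 after three weeks.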

[17] = system: late watergrass; experiment: Test Example 1: herbicidal activity, application before weed generation under submerged conditions (Table 16, symbol A); type: in vivo, late watergrass (Echinochloa oryzicola); conditions: 320 g/ha applied herbicide
Outline: as §4

| Compound | herbicidal effect grade, I: wild oat [1] | herbicidal effect grade, J: blackgrass [2] | herbicidal effect grade, G: green foxtail [3] | herbicidal effect rating, L: windgrass [4] | herbicidal effect on D (Chinese sprangletop), rating 0-5 [5] | herbicidal effect grade, K: Italian ryegrass [6] | herbicidal effect grade, H: barnyard grass [7] | herbicidal effect rating, F: southern crabgrass [8] | herbicidal effect grade, M: velvetleaf [9] | herbicidal effect rating, A: late watergrass [10] | herbicidal effect rating, O: lambsquarters [11] | herbicidal effect on E (rice flat sedge), rating 0-5 [12] | herbicidal effect rating, P: chickweed [13] | herbicidal effect rating, K: Italian ryegrass [14] | herbicidal effect rating, I: wild oat [15] | Herbicidal effect on B: Japanese bulrush (grade 0-5) [16] | Herbicidal effect on A: late watergrass (grade 0-5) [17] |
| --- | --- | --- | --- | --- | --- | --- | --- | --- | --- | --- | --- | --- | --- | --- | --- | --- | --- |
| CCOc1cc(F)ccc1-c1sc2ccccc2c1-c1c(O)c(C)nn(C)c1=O [1-061] | 5 (Herbicidal rate of 90% or more (almost completely withered)) | 5 (Herbicidal rate of 90% or more (almost completely withered)) | 5 (Herbicidal rate of 90% or more (almost completely withered)) | 5 (Herbicidal rate of 90% or more (almost completely withered)) | 4 (Herbicidal rate of 70% or more and less than 90%) | 4 (Herbicidal rate of 70% or more and less than 90%) | 5 (Herbicidal rate of 90% or more (almost completely withered)) | 5 (Herbicidal rate of 90% or more (almost completely withered)) | 5 (Herbicidal rate of 90% or more (almost completely withered)) | 0 (Herbicidal rate of 5% or less (almost no effect)) | 3 (Herbicidal rate of 40% or more and less than 70%) | 5 (Herbicidal rate of 90% or more (almost completely withered)) | 5 (Herbicidal rate of 90% or more (almost completely withered)) | 3 (Herbicidal rate of 40% or more and less than 70%) | 3 (Herbicidal rate of 40% or more and less than 70%) | 3 (Herbicidal rate of 40% or more and less than 70%) | 3 (Herbicidal rate of 40% or more and less than 70%) |
| CCCC(=O)Oc1c(C)nn(C)c(=O)c1-c1c(-c2ccc(OC)c(OC)c2)sc2ccccc12 [1-073] | 2 (Herbicidal rate of 20% or more and less than 40%) | 4 (Herbicidal rate of 70% or more and less than 90%) | 5 (Herbicidal rate of 90% or more (almost completely withered)) | 1 (Herbicidal rate of 5% or more and less than 20%) | 3 (Herbicidal rate of 40% or more and less than 70%) | 5 (Herbicidal rate of 90% or more (almost completely withered)) | 5 (Herbicidal rate of 90% or more (almost completely withered)) | 5 (Herbicidal rate of 90% or more (almost completely withered)) | 5 (Herbicidal rate of 90% or more (almost completely withered)) | 4 (Herbicidal rate of 70% or more and less than 90%) | 5 (Herbicidal rate of 90% or more (almost completely withered)) | 5 (Herbicidal rate of 90% or more (almost completely withered)) | 4 (Herbicidal rate of 70% or more and less than 90%) | 5 (Herbicidal rate of 90% or more (almost completely withered)) | 2 (Herbicidal rate of 20% or more and less than 40%) | 4 (Herbicidal rate of 70% or more and less than 90%) | 5 (Herbicidal rate of 90% or more (almost completely withered)) |
